Assay results as given in patent US12319664B2, “Herbicidally active 3-phenylisoxazoline-5-carboxamides of cyclopentenylcarboxylic acid derivatives” (Bayer Aktiengesellschaft, priority 2018, dated 2025).

Columns and labels:
PHBPU = test: Post-emergence herbicidal action against PHBPU; format: in vivo, Pharbitis purpurea; details: application rate 80 g/ha, rated visually about 3 weeks after treatment
Description: (§1) [table] 2. Post-emergence herbicidal action against harmful plants and crop plant compatibility Seeds of monocotyledonous and dicotyledonous weeds and crop plants are placed in sandy loam in plastic or wood-fibre pots, covered with soil and cultivated in a greenhouse under controlled growth conditions. 2 to 3 weeks after sowing, the test plants are treated at the one-leaf stage. The compounds of the invention, formulated in the form of wettable powders (WP) or as emulsion concentrates (EC), are then sprayed onto the green parts of the plants as aqueous suspension or emulsion with addition of 0.5% additive at a water application rate of 600 l/ha (converted). After the test plants have been kept in the greenhouse under optimum growth conditions for about 3 weeks, the activity of the preparations is rated visually in comparison to untreated controls. For example, 100% activity=the plants have died, 0% activity=like control plants.

ECHCG = test: Post-emergence herbicidal action against ECHCG; format: in vivo, Echinochloa crus-galli; details: application rate 80 g/ha, rated visually after about 3 weeks
Description: as §1

ABUTH = test: Post-emergence herbicidal action against ABUTH; format: in vivo, Abutilon theophrasti; details: application rate 80 g/ha, rated visually about 3 weeks after treatment
Description: as §1

HORMU = test: Post-emergence herbicidal action against HORMU; format: in vivo, Hordeum murinum; details: application rate 80 g/ha
Description: as §1

LOLRI = test: Post-emergence herbicidal action against LOLRI; format: in vivo, Lolium rigidum; details: application rate 80 g/ha, rated visually after about 3 weeks
Description: as §1

VERPE = test: Post-emergence herbicidal action against VERPE; format: in vivo, Veronica persica; details: application rate 80 g/ha
Description: as §1

POLCO = test: Post-emergence herbicidal action against POLCO; format: in vivo, Polygonum convolvulus; details: application rate 80 g/ha, rated visually about 3 weeks after treatment
Description: as §1

AVEFA = test: Post-emergence herbicidal action against AVEFA; format: in vivo, Avena fatua; details: application rate 80 g/ha, rated visually after about 3 weeks
Description: as §1

AMARE = test: Post-emergence herbicidal action against AMARE; format: in vivo, Amaranthus retroflexus; details: application rate 80 g/ha, rated visually about 3 weeks after treatment
Description: as §1

SETVI = test: Post-emergence herbicidal action against SETVI; format: in vivo, Setaria viridis; details: application rate 80 g/ha, rated visually after about 3 weeks
Description: as §1

ALOMY = test: Post-emergence herbicidal action against ALOMY; format: in vivo, Alopecurus myosuroides; details: application rate 80 g/ha, rated visually after about 3 weeks
Description: as §1

STEME = test: Post-emergence herbicidal action against STEME; format: in vivo, Stellaria media; details: application rate 80 g/ha, rated visually about 3 weeks after treatment
Description: as §1

CCOC(=O)[C@@H]1C=C[C@H](NC(=O)C2(C(F)(F)F)CC(c3ccccc3)=NO2)C1 (stereo partly shown) [Example I-021]
Herbicidal action against [%] PHBPU (PHBPU): 80%
Herbicidal action against [%] ECHCG (ECHCG): 80%
Herbicidal action against [%] ABUTH (ABUTH): 80%
Herbicidal action against [%] HORMU (HORMU): 90%
Herbicidal action against [%] LOLRI (LOLRI): 90%
Herbicidal action against [%] VERPE (VERPE): 80%
Herbicidal action against [%] POLCO (POLCO): 90%
Herbicidal action against [%] AVEFA (AVEFA): 100%
Herbicidal action against [%] AMARE (AMARE): 90%
Herbicidal action against [%] SETVI (SETVI): 90%
Herbicidal action against [%] ALOMY (ALOMY): 90%
Herbicidal action against [%] STEME (STEME): 80%

CC1(C(=O)NC2C=CC(C(=O)O)C2)CC(c2cccc(C#N)c2)=NO1 (mixture of isomers) [Example I-070]
Herbicidal action against [%] PHBPU (PHBPU): 80%
Herbicidal action against [%] ECHCG (ECHCG): 90%
Herbicidal action against [%] ABUTH (ABUTH): 80%
Herbicidal action against [%] HORMU (HORMU): 90%
Herbicidal action against [%] LOLRI (LOLRI): 80%
Herbicidal action against [%] VERPE (VERPE): 80%
Herbicidal action against [%] POLCO (POLCO): 90%
Herbicidal action against [%] AVEFA (AVEFA): 100%
Herbicidal action against [%] AMARE (AMARE): 90%
Herbicidal action against [%] SETVI (SETVI): 90%
Herbicidal action against [%] ALOMY (ALOMY): 90%
Herbicidal action against [%] STEME (STEME): 80%

COCCOC(=O)C1C=CC(NC(=O)C2(C(F)(F)F)CC(c3cccc(C#N)c3)=NO2)C1 (mixture of isomers) [Example I-086]
Herbicidal action against [%] PHBPU (PHBPU): 80%
Herbicidal action against [%] ECHCG (ECHCG): 90%
Herbicidal action against [%] ABUTH (ABUTH): 90%
Herbicidal action against [%] HORMU (HORMU): 100%
Herbicidal action against [%] LOLRI (LOLRI): 90%
Herbicidal action against [%] VERPE (VERPE): 90%
Herbicidal action against [%] POLCO (POLCO): 80%
Herbicidal action against [%] AVEFA (AVEFA): 90%
Herbicidal action against [%] AMARE (AMARE): 90%
Herbicidal action against [%] SETVI (SETVI): 90%
Herbicidal action against [%] ALOMY (ALOMY): 90%
Herbicidal action against [%] STEME (STEME): 80%

C=CC1(C(=O)N[C@H]2CC=C(C(=O)OC(C)C)C2)CC(c2cc(F)cc(F)c2)=NO1 (stereo partly shown) [III-13]
Herbicidal action against [%] PHBPU (PHBPU): 90%
Herbicidal action against [%] ECHCG (ECHCG): 90%
Herbicidal action against [%] ABUTH (ABUTH): 80%
Herbicidal action against [%] HORMU (HORMU): 90%
Herbicidal action against [%] LOLRI (LOLRI): 100%
Herbicidal action against [%] VERPE (VERPE): 80%
Herbicidal action against [%] POLCO (POLCO): 80%
Herbicidal action against [%] AVEFA (AVEFA): 90%
Herbicidal action against [%] AMARE (AMARE): 90%
Herbicidal action against [%] SETVI (SETVI): 80%
Herbicidal action against [%] ALOMY (ALOMY): 90%
Herbicidal action against [%] STEME (STEME): 90%

C=CC1(C(=O)NC2C=CC(C(=O)NC(C(=O)OC)C(C)C)C2)CC(c2cc(F)cc(F)c2)=NO1 (single isomer, unassigned) [II-26]
Herbicidal action against [%] PHBPU (PHBPU): 80%
Herbicidal action against [%] ECHCG (ECHCG): 80%
Herbicidal action against [%] ABUTH (ABUTH): 80%
Herbicidal action against [%] HORMU (HORMU): 100%
Herbicidal action against [%] LOLRI (LOLRI): 100%
Herbicidal action against [%] VERPE (VERPE): 80%
Herbicidal action against [%] POLCO (POLCO): 80%
Herbicidal action against [%] AVEFA (AVEFA): 90%
Herbicidal action against [%] AMARE (AMARE): 90%
Herbicidal action against [%] SETVI (SETVI): 80%
Herbicidal action against [%] ALOMY (ALOMY): 100%
Herbicidal action against [%] STEME (STEME): 90%

COc1cc(OC)cc(C2=NOC(C(=O)NC3C=CC(C(=O)OCCCl)C3)(C(F)(F)F)C2)c1 (mixture of isomers) [Example I-044]
Herbicidal action against [%] PHBPU (PHBPU): 80%
Herbicidal action against [%] ECHCG (ECHCG): 90%
Herbicidal action against [%] ABUTH (ABUTH): 90%
Herbicidal action against [%] HORMU (HORMU): 100%
Herbicidal action against [%] AVEFA (AVEFA): 80%
Herbicidal action against [%] AMARE (AMARE): 80%

CC1(C(=O)N[C@H]2C=C[C@@H](C(=O)OCC(F)(F)F)C2)CC(c2cc(F)cc(F)c2)=NO1 (stereo partly shown) [Example I-010]
Herbicidal action against [%] PHBPU (PHBPU): 90%
Herbicidal action against [%] ECHCG (ECHCG): 90%
Herbicidal action against [%] ABUTH (ABUTH): 80%
Herbicidal action against [%] HORMU (HORMU): 90%
Herbicidal action against [%] LOLRI (LOLRI): 90%
Herbicidal action against [%] VERPE (VERPE): 90%
Herbicidal action against [%] POLCO (POLCO): 90%
Herbicidal action against [%] AVEFA (AVEFA): 90%
Herbicidal action against [%] AMARE (AMARE): 90%
Herbicidal action against [%] SETVI (SETVI): 90%
Herbicidal action against [%] ALOMY (ALOMY): 90%
Herbicidal action against [%] STEME (STEME): 80%

C=C[C@]1(C(=O)N[C@H]2C=C[C@H](C(=O)OC)C2)CC(c2cc(F)cc(F)c2)=NO1 [Example I-054]
Herbicidal action against [%] PHBPU (PHBPU): 80%
Herbicidal action against [%] ECHCG (ECHCG): 90%
Herbicidal action against [%] HORMU (HORMU): 90%
Herbicidal action against [%] LOLRI (LOLRI): 100%
Herbicidal action against [%] VERPE (VERPE): 90%
Herbicidal action against [%] POLCO (POLCO): 80%
Herbicidal action against [%] AVEFA (AVEFA): 100%
Herbicidal action against [%] AMARE (AMARE): 80%
Herbicidal action against [%] SETVI (SETVI): 80%
Herbicidal action against [%] ALOMY (ALOMY): 90%
Herbicidal action against [%] STEME (STEME): 80%

CCOC(=O)C1C=CC(NC(=O)C2(C)CC(c3cc(F)cc(C#N)c3)=NO2)C1 (mixture of isomers) [Example I-073]
Herbicidal action against [%] PHBPU (PHBPU): 80%
Herbicidal action against [%] ECHCG (ECHCG): 100%
Herbicidal action against [%] ABUTH (ABUTH): 80%
Herbicidal action against [%] HORMU (HORMU): 90%
Herbicidal action against [%] LOLRI (LOLRI): 100%
Herbicidal action against [%] VERPE (VERPE): 80%
Herbicidal action against [%] POLCO (POLCO): 90%
Herbicidal action against [%] AVEFA (AVEFA): 100%
Herbicidal action against [%] AMARE (AMARE): 80%
Herbicidal action against [%] SETVI (SETVI): 80%
Herbicidal action against [%] ALOMY (ALOMY): 90%
Herbicidal action against [%] STEME (STEME): 90%

O=C(OCC(F)(F)F)C1C=CC(NC(=O)C2(C(F)(F)F)CC(c3cccc(Cl)c3)=NO2)C1 (mixture of isomers) [Example I-051]
Herbicidal action against [%] PHBPU (PHBPU): 80%
Herbicidal action against [%] ECHCG (ECHCG): 80%
Herbicidal action against [%] ABUTH (ABUTH): 80%
Herbicidal action against [%] HORMU (HORMU): 90%
Herbicidal action against [%] LOLRI (LOLRI): 90%
Herbicidal action against [%] VERPE (VERPE): 80%
Herbicidal action against [%] AVEFA (AVEFA): 90%
Herbicidal action against [%] ALOMY (ALOMY): 100%
Herbicidal action against [%] STEME (STEME): 90%

CC(C)(C)OC(=O)[C@@H]1C=C[C@H](NC(=O)C2(C)CC(c3cc(F)cc(F)c3)=NO2)C1 (stereo partly shown) [Example I-007]
Herbicidal action against [%] PHBPU (PHBPU): 90%
Herbicidal action against [%] ECHCG (ECHCG): 90%
Herbicidal action against [%] ABUTH (ABUTH): 80%
Herbicidal action against [%] HORMU (HORMU): 90%
Herbicidal action against [%] LOLRI (LOLRI): 90%
Herbicidal action against [%] VERPE (VERPE): 90%
Herbicidal action against [%] POLCO (POLCO): 80%
Herbicidal action against [%] AVEFA (AVEFA): 90%
Herbicidal action against [%] SETVI (SETVI): 90%
Herbicidal action against [%] ALOMY (ALOMY): 90%
Herbicidal action against [%] STEME (STEME): 90%

O=C(OCCCl)C1C=CC(NC(=O)C2(C(F)(F)F)CC(c3cccc(Cl)c3)=NO2)C1 (mixture of isomers) [Example I-045]
Herbicidal action against [%] PHBPU (PHBPU): 80%
Herbicidal action against [%] ECHCG (ECHCG): 80%
Herbicidal action against [%] ABUTH (ABUTH): 80%
Herbicidal action against [%] HORMU (HORMU): 90%
Herbicidal action against [%] LOLRI (LOLRI): 80%
Herbicidal action against [%] AVEFA (AVEFA): 90%
Herbicidal action against [%] SETVI (SETVI): 80%
Herbicidal action against [%] ALOMY (ALOMY): 100%
Herbicidal action against [%] STEME (STEME): 80%
